Data on 23 molecules can be found in publication PMC2063630 (The Journal of Cell Biology, 2007).

Read-outs that look alike come from different tables or passages of the source. Square brackets hold non-standard residues; d marks the D form. Ends that are not written are not given here. * marks the point of attachment. Biotin = O=C1N[C@H]2[C@H](CS[C@H]2CCCCC(=O)*)N1; pS = N[C@@H](COP(=O)(O)O)C(=O)O

For data set [1], the target named is OSR1 CCT domain (residues 429–527) (Homo sapiens, UniProt O95747). Kind of data set: Surface plasmon resonance. The format is binding. As to conditions: BiaCore, OSR1 CCT domain 6.8–340 nM; vs nonphosphorylated peptide. For orientation: SPR reads the build-up and loss of mass on a sensor chip optically.
Data set [2] concerns OSR1[D164A] phosphorylation by WNK1[1–661]. Briefly: Activity of WNK1[1–661] forms expressed in E. coli. The format is biochemical. As to conditions: mean of duplicate samples.
Data set [3] deals with endogenous WNK1 in 293 cells. The format is cell-based. Particulars: for activation of WNK1 by other stimuli, in words: serum-deprived 16 h, stimulus 30 min.
In data set [4] the test system is WNK1 Ser382. Briefly: WNK1 Ser382 phosphorylation, forms expressed in E. coli. The format is biochemical.
The next data set has as its system p38 and JNK isoforms. As to conditions: high concentrations; ref Kuma et al., 2005; cited from earlier work.
Another data set relates to ERK1/2. Kind of data set: ERK activation in 293 cells. The format is cell-based.
The test system of another data set is p38 and JNK. Briefly: p38 / JNK activation in 293 cells. As to conditions: 30 min. The format is cell-based.
The subject of data set [5] is endogenous SPAK and OSR1 in HeLa cells. Briefly: SPAK/OSR1 activity in HeLa cells. The format is cell-based. As to conditions: 0.5 M sorbitol, 30 min, CATCHtide.
The subject of data set [6] is endogenous SPAK and OSR1 in 293 cells. Briefly: SPAK/OSR1 activity in 293 cells. The format is cell-based. Particulars: sorbitol, CATCHtide (Fig. S1).
Data set [7] has as its system SPAK and OSR1 T-loop and S-motif. Briefly: SPAK/OSR1 T-loop and S-motif phosphorylation. In kind it is cell-based. As to conditions: sorbitol, HeLa and 293 cells.
The subject of data set [8] is endogenous WNK1 in 293 cells. In kind it is cell-based, human. Particulars: 0.5 M sorbitol.
Data set [9] concerns WNK1 localization in 293 cells. Briefly: WNK1 localization in 293 cells by confocal and live-cell imaging, FRAP. In kind it is cell-based. Particulars: for time to redistribution of GFP-WNK1 to intracellular vesicles / time to reversal after removal (WNK1 diffuse in cytosol): live 293 cells; for time to redistribution of GFP-WNK1 to intracellular vesicles: 0.2 M sorbitol or 0.2 M NaCl; for time to reversal after removal (WNK1 diffuse in cytosol): removal of sorbitol or NaCl; for FRAP: time to redistribution to photobleached area: sorbitol- or NaCl-treated 293 cells.

Data set [10] relates to OSR1[D164A] phosphorylation by WNK1[1–667]. Briefly: Activity of GST-WNK1[1–667] forms expressed in 293 cells. In kind it is cell-based.
Data set [11] concerns WNK1 Ser382. Kind of data set: WNK1 Ser382 phosphorylation, forms expressed in 293 cells. In kind it is cell-based. As to conditions: 0.5 M sorbitol, 30 min, phospho-Ser382 antibody.
The target in data set [12] is OSR1 CCT domain (residues 429-527) (human, UniProt O95747 429-527). Briefly: SPR.
The mark [13] stands for this setting: U0126, 0.5 M sorbitol, not depicted.
The mark [14] stands for this setting: PD184352 2 μM 30 min preincubation, 0.5 M sorbitol 30 min.

OSR1 CCT domain (residues 429–527), sequence (O95747 429-527): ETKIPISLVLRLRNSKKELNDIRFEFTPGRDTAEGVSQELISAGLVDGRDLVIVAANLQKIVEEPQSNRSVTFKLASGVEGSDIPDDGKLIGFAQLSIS
OSR1 CCT domain (residues 429-527), sequence (O95747 429-527): as above

As to “AGRRFIVpSPVPESRL (AGRRFIV[pS]PVPESRL; also: biotin label, attachment end not given here) [phosphorylated Ser1261 peptide]”, the “binding to OSR1 CCT domain, in words” value in data set [1] was “bound to OSR1 with a markedly lower affinity”.

In data set [2], “WNK1[S382D, 1–661]: mutant expressed in E. coli” had a specific activity of 0.26 U/mg.

Regarding “WNK1[S382E, 1–661]: mutant expressed in E. coli”, in data set [2], the specific activity amounted to 0.66 U/mg.

For IGF-1: IGF-1, the “activation of WNK1 by other stimuli, in words” value in data set [3] was “failed to induce activation of WNK1”.

As to “WNK1[1–661]: wild-type WNK1 fragment expressed in E. coli”, the specific activity in data set [2] worked out at 5.2 U/mg. Moreover, in the data set with WNK1 Ser382 [4] (0.1 mM ATP, 10 mM Mg, 1 h), the “Ser382 phosphorylation after MgATP, in words” value is “did not further increase phosphorylation of Ser382”. Besides, the “Ser382 phosphorylation, in words” value in the data set on WNK1 Ser382 [4] (expressed in E. coli) is reported as “heavily phosphorylated at Ser382”.

As for `CCCCCCCCCCCCCC(=O)O[C@@H]1[C@@H](C)[C@@]2(O)[C@@H](C=C(CO)C[C@]3(O)C(=O)C(C)=C[C@@H]23)[C@@H]2C(C)(C)[C@]12OC(C)=O` [TPA], in [3], the “activation of WNK1 by other stimuli, in words” value is “failed to induce activation of WNK1”.

As for `OO` [H2O2], the “activation of WNK1 by other stimuli, in words” value in data set [3] is “failed to induce activation of WNK1”.

For `[Cl-].[K+]` [KCl], the “fold increase of WNK1 activity” value in data set [3] (0.5 M KCl, 30 min) is listed as “threefold”.

For the molecule TNFα, the “activation of WNK1 by other stimuli, in words” value in data set [3] was “failed to induce activation of WNK1”.

Regarding `Cc1ccc(-n2nc(C(C)(C)C)cc2NC(=O)Nc2ccc(OCCN3CCOCC3)c3ccccc23)cc1` [BIRB0796], the “inhibition of p38 and JNK isoforms, in words” value in the data set on p38 and JNK isoforms was “inhibit all p38 and JNK isoforms”.

With `CCCCNc1cc(C(=O)O)cc(S(N)(=O)=O)c1Oc1ccccc1` [bumetanide], in data set [3], the “activation of WNK1 by other stimuli, in words” value was “failed to induce activation of WNK1”.

For the molecule `OC[C@@H](O)[C@@H](O)[C@H](O)[C@@H](O)CO` [sorbitol], in data set [3] (0.1–1.0 M sorbitol, 30 min, dose-dependent), the “fold increase of WNK1 activity” value was “fivefold”. Further, in data set [3] (0.5 M sorbitol), the “duration of sustained WNK1 activation” value was 80 min, the “time at which WNK1 activation was detected” value is not above 0.5 min and the “time to maximal WNK1 activation” value was 1 to 2 min. Also, the “fold increase of WNK1 activity (OSR1 phosphorylation rate)” value in [3] (0.5 M sorbitol, 30 min, vs nontreated cells, duplicate samples) is listed as “approximately threefold”. Further, the “ERK1/2 stimulation, in words” value in the data set with ERK1/2 (0.5 M sorbitol, 30 min) is on record as “stimulated the extracellular signal–regulated kinase (ERK) 1/2”. Moreover, in the data set on p38 and JNK (0.5 M sorbitol), the “p38 and JNK stimulation, in words” value was “stimulated the extracellular signal–regulated kinase (ERK) 1/2, p38, and JNK protein kinases”. The “fold increase of SPAK/OSR1 activity” value in data set [5] is reported as “approximately fivefold”. In data set [6], the “fold increase of SPAK/OSR1 activity” value is recorded as “approximately fourfold”. Besides, the “SPAK/OSR1 T-loop and S-motif phosphorylation, in words” value in data set [7] is “markedly stimulated the phosphorylation of endogenously expressed SPAK and OSR1 at both the T-loop and S-motif”. In addition, the “WNK1 phosphorylation sites stimulated, in words” value in data set [8] (32P-labelled 293 cells, 20 min) was “Phosphorylation of two sites, Ser1261 and Ser 2372, was stimulated”. In addition, the “WNK1 phosphorylation sites enhanced, in words” value in [8] (unlabeled 293 cells, LC-MS, 30 min) is “five residues (Ser15, Ser167, Ser382, Ser1261, and Thr1848) whose phosphorylation was markedly enhanced”. In [9] (0.2 M sorbitol, 1 min), the “WNK1 localization, in words” value is on record as “WNK1 was strikingly observed on discrete intracellular structures”. In data set [9], the “time to redistribution of GFP-WNK1 to intracellular vesicles” value is not above 0.5 min, the “time to reversal after removal (WNK1 diffuse in cytosol)” value is on record as not above 2 min and the “FRAP: time to redistribution to photobleached area” value was not above 2 min.

As to `C[S+]([O-])c1ccc(-c2nc(-c3ccncc3)c(-c3ccc(F)cc3)[nH]2)cc1` (centres unmarked) [SB203580], in [3], the “effect on WNK1 activation by sorbitol” value is on record as “failed to prevent activation of WNK1 by sorbitol”.

For “WNK1[S382E, 1–667]: Ser382 to Glu mutant of GST-WNK1[1–667]”, the “effect of sorbitol on activity of mutant, in words” value in data set [10] (0.5 M sorbitol, 30 min) is “not enhanced by sorbitol stimulation”. The “basal activity, fold over wild-type WNK1[1–667] from untreated cells” value in [10] (untreated 293 cells) was “over eightfold”.

Turning to `COc1ccc(C[C@H]2NC[C@H](O)[C@H]2OC(C)=O)cc1` [anisomycin], in data set [3] (anisomycin 10 μg/ml, 30 min), the “activation of WNK1 by anisomycin, in words” value is recorded as “failed to activate WNK1”. For the same molecule, the “p38 and JNK stimulation, in words” value in the data set with p38 and JNK (anisomycin 10 μg/ml) is “potently stimulates p38 and JNK”.

On to pervanadate, for which the “activation of WNK1 by other stimuli, in words” value in data set [3] is reported as “failed to induce activation of WNK1”.

With `[Cl-].[Na+]` [NaCl], in [3] (NaCl, 30 min), the “concentration at which WNK1 activation was detectable” value is reported as 50 mM and the “concentration for maximal WNK1 activation” value is listed as 0.15 M. Further, in data set [9], the “time to redistribution of GFP-WNK1 to intracellular vesicles” value is reported as not above 0.5 min, the “time to reversal after removal (WNK1 diffuse in cytosol)” value is given as not above 2 min and the “FRAP: time to redistribution to photobleached area” value was not above 2 min.

Turning to `N#CC(=C(/N)Sc1ccccc1N)/C(C#N)=C(/N)Sc1ccccc1N` [U0126], the “effect on WNK1 activation by sorbitol” value in [3] (setting [13]) is “without affecting WNK1 activation”. In addition, in the data set on ERK1/2 (setting [13]), the “effect on ERK activation by sorbitol” value was “abolished ERK activation by sorbitol”.

With “WNK1[1–667]: N-terminal fragment of WNK1, GST fusion, expressed in 293 cells”, the specific activity in data set [10] (isolated from sorbitol-stimulated 293 cells) is on record as approximately 0.13 U/mg; in data set [10] (wild-type, isolated from untreated 293 cells), 0.13 U/mg. Besides, the “Ser382 phosphorylation induced by sorbitol, in words” value in the data set with WNK1 Ser382 [11] was “Sorbitol markedly increased recognition of WNK1[1–667] by a phospho-Ser382 antibody”.

As to “WNK1[S382A, 1–661]: mutant expressed in E. coli”, the specific activity in data set [2] came out at 0.15 U/mg.

In the case of `O=C(NOCC1CC1)c1ccc(F)c(F)c1Nc1ccc(I)cc1Cl` [PD184352], the “effect on WNK1 activation by sorbitol” value in [3] (setting [14]) is listed as “without affecting WNK1 activation”. The “effect on ERK activation by sorbitol” value in the data set with ERK1/2 (setting [14]) is recorded as “abolished ERK activation by sorbitol”.

For `COC[C@@H]([C@H](O)[C@H](O)C(=O)NCC[C@H](C)c1nc(/C=C/C[C@@H]2O[C@]3(C[C@@H](O)[C@@H]2C)O[C@H]([C@H](C[C@H](O)[C@H](C)[C@H](O)[C@H](C)/C=C(C)/C(C)=C/C=C/C(C)=C\C#N)OC)[C@H](OP(=O)(O)O)C3(C)C)co1)N(C)C` [calyculin A], the “activation of WNK1 by other stimuli, in words” value in data set [3] is “failed to induce activation of WNK1”.

As for Biotin-AGRRFIVSPVPESRL [biotinylated peptide encompassing Ser1261 of WNK1 (biotin-AGRRFIVSPVPESRL)], the equilibrium dissociation constant (Kd) (usually the concentration at which binding is half-saturated) in data set [12] was approximately 40 nM.
